In patent publication EP0433679A2, “Pharmaceutical compositions for inhibition of maillard's reaction” (Senju Pharmaceutical Co., Ltd., priority 1989, dated 1991):

Target: bovine serum albumine (Bos taurus, UniProt P02769)
Experiment: Inhibition of furosine formation (non-enzymatic glycosylation of BSA by glucose, furosine determined by HPLC)
Settings: 672 h, pH 7.3, read-out: Inhibition rate (%)
Experimental: The sample solutions were kept for 4 weeks at 37 °C, and the amount of furosine which was formed by non-enzymatic glycosylation was determined by HPLC according to the method of Schleicher et al. (J. Clin. Biochem., 19:81-87 (1981).] Thus, the sample solutions after reaction were dialyzed, and aliquots of 1 ml were lyophylized and then hydrolyzed by the addition of 1 ml of 6 N hydrochloric acid followed by heating at 100 °C for 20 hours. After removal of hydrochloric acid by evaporation, 1 ml of water was added to each sample, and the samples were subjected to filtration using a filter with the pore size of 0.45 µm. The filtrate was used as the sample for HPLC. ODS-120T (Toso) was used for the column and 7 mM phosphoric acid solution was used as the eluant. The absorbance peak whose ratio of peak area at 280 mm/254 mm was 3.9/1 was regarded as the peak corresponding to furosine.
Upon the area of the peak of furosine of each sample, the inhibition rate of furosine formation by the test compound was calculated as follows. Inhibition rate (%)=(c-d)+(c-n)×100 c; peak area of furosine of the control sample d; peak area of furosine of the test sample n; peak area of furosine of the normal sample

bovine serum albumine, sequence (P02769 25-607): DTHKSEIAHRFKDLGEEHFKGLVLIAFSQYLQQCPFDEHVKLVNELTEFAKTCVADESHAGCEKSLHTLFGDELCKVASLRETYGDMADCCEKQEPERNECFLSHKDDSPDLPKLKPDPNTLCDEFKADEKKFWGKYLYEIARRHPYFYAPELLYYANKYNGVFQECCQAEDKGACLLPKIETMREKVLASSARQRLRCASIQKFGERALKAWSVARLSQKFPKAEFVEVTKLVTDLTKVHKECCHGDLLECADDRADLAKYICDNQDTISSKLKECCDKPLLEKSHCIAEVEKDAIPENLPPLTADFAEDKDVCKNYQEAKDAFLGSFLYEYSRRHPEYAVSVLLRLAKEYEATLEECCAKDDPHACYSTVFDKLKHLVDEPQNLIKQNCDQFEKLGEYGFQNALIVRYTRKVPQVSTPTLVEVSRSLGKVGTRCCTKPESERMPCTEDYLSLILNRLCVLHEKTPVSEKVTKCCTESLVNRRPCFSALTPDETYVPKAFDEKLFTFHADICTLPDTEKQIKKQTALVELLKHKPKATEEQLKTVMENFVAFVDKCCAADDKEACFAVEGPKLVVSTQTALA

| SMILES | inhibition at 5000 µM |
| --- | --- |
| N=C(N)NN [Aminoguanidine, aminoguanidine, reference compound] | 7.5% |
| O=C(O)c1cc(O)c2c(n1)C(=O)C=C(O)C2=O [T-1] | 77.8% |
| Oc1ccc(O)c2c(O)cc(C(F)(F)F)nc12 [T-2] | 79.9% |
| O=C1C=CC(=O)c2c(O)cc(C(F)(F)F)nc21 [T-3] | 73.4% |
| COC(=O)c1cc(O)c2c(n1)C(=O)C=CC2=O [T-4] | 92.5% |
| O=C(O)c1cnc2c(c1O)C(=O)C=CC2=O [T-7] | 79.9% |
| CCOC(=O)c1cnc2c(c1O)C(=O)C=CC2=O [T-8] | 96.9% |

The next lines start with the values.

| inhibition at 5000 µM | SMILES |
| --- | --- |
| 78.9% | O=C(O)c1cc(O)c2c(O)ccc(O)c2n1 [T-5] |
| 76% | O=C(O)c1cc(O)c2c(n1)C(=O)C=CC2=O [T-6] |
| 99.5% | Cc1cc(O)c2c(n1)C(=O)C=CC2=O [T-9] |
| 73.8% | O=c1ccc2[n+]([O-])c3ccc(O)cc3oc-2c1 [T-10, resazurin] |
